Test results as given in US20100029752A1, “NOVEL COMPOUNDS, PHARMACEUTICAL COMPOSITIONS CONTAINING SAME, AND METHODS OF USE FOR SAME” (priority 2005, published 2010).
Values after ≈ are worked out from the molar mass of the structure shown.

Legend:
[1] = test system: MCF-7 human breast cancer cells; assay: Crystal violet cell growth assay; assay type: cell-based; details: MCF7, MCF-7 cells, 72 hours, read-out: Cr. Violet (IC50)
Description: The crystal violet assay measures cell growth but not cytotoxicity. This assay employs crystal violet staining of fixed cells in 96-well plates with subsequent solubilization and measurement of OD490 on a spectrophotometer. The OD490 corresponds to cell growth per unit time measured. Cells are treated with the compounds of interest or vehicle controls and IC50 for each compound is computed.
To measure the cytotoxicity of specific compounds against cancer cells, 5×10^4 MCF-7 human breast cancer cells, obtained from the American Type Culture Collection are plated per well in 24 well plates in DMEM medium with 10% fetal bovine serum, penicillin, and streptomycin. Following overnight culture at 37° C. and 5% CO2, the compounds to be tested, dissolved in DMSO, are added to the wells in 1 μl volume at the following concentrations: 50, 40, 30, 20, and 10 μg/ml in triplicate. Additional concentrations are tested if required. 1 μl of DMSO is added to triplicate wells are the vehicle control. C75 is run at 10, and 5 μg/ml in triplicate as positive controls.
After 72 hours of incubation, cells are stained with 0.5 ml of Crystal Violet stain (0.5% in 25% methanol) in each well. After 10 minutes, wells are rinsed, air dried, and then solubilized with 0.5 ml 10% sodium dodecylsulfate with shaking for 2 hours. Following transfer of 100 μl from each well to a 96-well plate, plates are read at OD490 on a Molecular Devices SpectraMax Plus Spectrophotometer Average OD490 values are computed using SOFTmax Pro Software (Molecular Devices) and IC50 values are determined by linear regression analysis using Prism version 3.02 (Graph Pad Software, San Diego).

purified human FAS = target: T1, purified human FAS (Homo sapiens, UniProt P49327); assay: FAS enzymatic activity (malonyl-CoA dependent NADPH oxidation); assay type: biochemical; details: purified FAS from ZR-75-1 cells, OD340
T1 construct: Human FAS was purified from cultured ZR-75-1 human breast cancer cells obtained from the American Type Culture Collection; endogenous in cells; host or cells: ZR-75-1 human breast cancer cells (ATCC); enzyme purified by PEG precipitation and Mono Q chromatography
T1 sequence (P49327 whole entry): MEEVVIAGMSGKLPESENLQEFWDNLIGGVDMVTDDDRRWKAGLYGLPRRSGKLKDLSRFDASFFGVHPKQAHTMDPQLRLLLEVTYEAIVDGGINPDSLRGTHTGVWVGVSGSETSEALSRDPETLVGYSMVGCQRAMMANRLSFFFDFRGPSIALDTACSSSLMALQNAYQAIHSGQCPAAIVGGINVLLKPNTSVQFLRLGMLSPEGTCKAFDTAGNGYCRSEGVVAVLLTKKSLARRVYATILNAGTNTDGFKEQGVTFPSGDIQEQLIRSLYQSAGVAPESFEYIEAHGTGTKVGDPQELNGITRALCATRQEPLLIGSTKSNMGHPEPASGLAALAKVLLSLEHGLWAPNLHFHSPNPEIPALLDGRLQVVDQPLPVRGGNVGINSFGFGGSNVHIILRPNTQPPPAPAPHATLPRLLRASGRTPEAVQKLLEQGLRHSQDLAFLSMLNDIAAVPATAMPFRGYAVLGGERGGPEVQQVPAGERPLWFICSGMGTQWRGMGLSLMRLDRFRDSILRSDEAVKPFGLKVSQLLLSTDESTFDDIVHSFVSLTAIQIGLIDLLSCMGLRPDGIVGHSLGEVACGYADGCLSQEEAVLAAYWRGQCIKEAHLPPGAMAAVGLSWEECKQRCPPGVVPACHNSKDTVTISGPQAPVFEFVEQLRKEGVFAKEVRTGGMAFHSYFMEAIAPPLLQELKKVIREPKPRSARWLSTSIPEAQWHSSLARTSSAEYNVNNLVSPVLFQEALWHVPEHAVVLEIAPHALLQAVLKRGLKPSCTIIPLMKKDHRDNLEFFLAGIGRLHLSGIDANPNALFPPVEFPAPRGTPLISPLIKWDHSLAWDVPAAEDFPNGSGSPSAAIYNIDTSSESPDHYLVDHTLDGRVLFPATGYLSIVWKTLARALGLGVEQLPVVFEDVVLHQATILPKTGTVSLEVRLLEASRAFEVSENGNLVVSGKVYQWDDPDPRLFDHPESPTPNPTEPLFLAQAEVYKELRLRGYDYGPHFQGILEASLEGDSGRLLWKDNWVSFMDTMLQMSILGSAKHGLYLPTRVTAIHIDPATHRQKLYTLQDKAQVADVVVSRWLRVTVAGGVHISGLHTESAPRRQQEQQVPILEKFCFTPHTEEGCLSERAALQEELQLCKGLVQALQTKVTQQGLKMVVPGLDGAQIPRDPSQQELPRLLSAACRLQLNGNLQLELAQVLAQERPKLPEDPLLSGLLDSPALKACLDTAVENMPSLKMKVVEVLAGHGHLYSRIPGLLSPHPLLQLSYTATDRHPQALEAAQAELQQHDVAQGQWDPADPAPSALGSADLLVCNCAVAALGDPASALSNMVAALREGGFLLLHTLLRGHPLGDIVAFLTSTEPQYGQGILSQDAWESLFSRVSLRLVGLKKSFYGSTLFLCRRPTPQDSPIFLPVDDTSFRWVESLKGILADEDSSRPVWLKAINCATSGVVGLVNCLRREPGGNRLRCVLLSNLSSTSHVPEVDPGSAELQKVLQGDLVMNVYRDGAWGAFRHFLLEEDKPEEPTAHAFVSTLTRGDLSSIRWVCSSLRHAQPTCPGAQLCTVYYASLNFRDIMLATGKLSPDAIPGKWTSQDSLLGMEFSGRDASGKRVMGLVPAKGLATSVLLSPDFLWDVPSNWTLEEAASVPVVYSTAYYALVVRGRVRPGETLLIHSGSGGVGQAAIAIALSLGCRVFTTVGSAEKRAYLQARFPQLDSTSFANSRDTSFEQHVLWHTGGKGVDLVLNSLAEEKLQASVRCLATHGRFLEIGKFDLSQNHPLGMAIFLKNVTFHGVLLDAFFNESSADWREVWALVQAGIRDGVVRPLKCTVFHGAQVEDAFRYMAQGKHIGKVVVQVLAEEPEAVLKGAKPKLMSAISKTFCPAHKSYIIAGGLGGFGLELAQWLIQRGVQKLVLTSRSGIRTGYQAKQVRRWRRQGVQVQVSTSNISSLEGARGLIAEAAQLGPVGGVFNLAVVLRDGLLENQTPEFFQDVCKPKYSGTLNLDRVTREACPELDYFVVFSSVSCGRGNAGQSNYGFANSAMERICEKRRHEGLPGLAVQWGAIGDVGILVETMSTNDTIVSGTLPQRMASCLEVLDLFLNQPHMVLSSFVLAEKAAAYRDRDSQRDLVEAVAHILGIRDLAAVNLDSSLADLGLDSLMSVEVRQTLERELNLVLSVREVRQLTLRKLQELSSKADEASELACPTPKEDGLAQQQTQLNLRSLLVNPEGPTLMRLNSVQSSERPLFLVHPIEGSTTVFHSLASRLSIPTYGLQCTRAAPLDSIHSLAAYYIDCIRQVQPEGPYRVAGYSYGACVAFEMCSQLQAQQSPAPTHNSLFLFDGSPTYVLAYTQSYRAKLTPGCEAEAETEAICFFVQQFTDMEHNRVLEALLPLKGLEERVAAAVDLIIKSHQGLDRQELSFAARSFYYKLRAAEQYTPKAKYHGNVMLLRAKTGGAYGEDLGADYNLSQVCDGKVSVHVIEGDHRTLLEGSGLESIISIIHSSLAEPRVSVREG
Description: Human FAS was purified from cultured ZR-75-1 human breast cancer cells obtained from the American Type Culture Collection. The procedure, adapted from Linn et al., 1981, and Kuhajda et al., 1994, utilizes hypotonic lysis, successive polyethyleneglycol (PEG) precipitations, and anion exchange chromatography. ZR-75-1 cells are cultured at 37° C. with 5% CO2 in RPMI culture medium with 10% fetal bovine serum, penicillin and streptomycin.
Ten T150 flasks of confluent cells are lysed with 1.5 ml lysis buffer (20 mM Tris-HCl, pH 7.5, 1 mM EDTA, 0.1 mM phenylmethanesulfonyl fluoride (PMSF), 0.1% Igepal CA-630) and dounce homogenized on ice for 20 strokes. The lysate is centrifuged in JA-20 rotor (Beckman) at 20,000 rpm for 30 minutes at 4° C. and the supernatant is brought to 42 ml with lysis buffer. A solution of 50% PEG 8000 in lysis buffer is added slowly to the supernatant to a final concentration of 7.5%. After rocking for 60 minutes at 4° C., the solution is centrifuged in JA-20 rotor (Beckman) at 15,000 rpm for 30 minutes at 4° C. Solid PEG 8000 is then added to the supernatant to a final concentration of 15%. After the rocking and centrifugation is repeated as above, the pellet is resuspended overnight at 4° C. in 10 ml of Buffer A (20 mM K2HPO4, pH 7.4). After […] filtration, the protein solution is applied to a Mono Q 5/5 anion exchange column (Pharmacia). The column is washed for 15 minutes with buffer A at 1 ml/minute, and bound material is eluted with a linear 60-ml gradient over 60 minutes to 1 M KCl. FAS (MW˜270 kD) typically elutes at 0.25 M KCl in three 0.5 ml fractions identified using 4-15% SDS-PAGE with Coomassie G250 stain (Bio-Rad). FAS protein concentration is determined using the Coomassie Plus Protein Assay Reagent (Pierce) according to manufacturer's specifications using BSA as a standard. This procedure results in substantially pure preparations of FAS (>95%) as judged by Coomassie-stained gels.
FAS activity is measured by monitoring the malonyl-CoA dependent oxidation of NADPH spectrophotometrically at OD340 in 96-well plates (Dils et al and Arslanian et al, 1975). Each well contains 2 μg purified FAS, 100 mM K2HPO4, pH 6.5, 1 mM dithiothreitol (Sigma), and 187.5 μM β-NADPH (Sigma). Stock solutions of inhibitors are prepared in DMSO at 2, 1, and 0.5 mg/ml resulting in final concentrations of 20, 10, and 5 μg/ml when 1 μl of stock is added per well. For each experiment, cerulenin (Sigma) is run as a positive control along with DMSO controls, inhibitors, and blanks (no FAS enzyme) all in duplicate.
The assay is performed on a Molecular Devices SpectraMax Plus Spectrophotometer. The plate containing FAS, buffers, inhibitors, and controls are placed in the spectrophotometer heated to 37° C. Using the kinetic protocol, the wells are blanked on duplicate wells containing 100 μl of 100 mM K2HPO4, pH 6.5 and the plate is read at OD340 at 10 sec intervals for 5 minutes to measure any malonyl-CoA independent oxidation of NADPH. The plate is removed from the spectrophotometer and malonyl-CoA (67.4 μM, final concentration per well) and […] (61.8 μM, final concentration per well) are added to each well except to the blanks. The plate is read again as above with the kinetic protocol to measure the malonyl-CoA dependent NADPH oxidation. The difference between the ΔOD340 for the malonyl-CoA dependent and non-malonyl-CoA dependent NADPH oxidation is the specific FAS activity. Because of the purity of the FAS preparation, non-malonyl-CoA dependent NADPH oxidation is negligible.
The concentration of compound yielding 50% inhibition of FAS is the IC50. Graphs of ΔOD340 versus time are plotted by the SOFTmax PRO software (Molecular Devices) for each compound concentration. Computation of linear regression, best-fit line, r^2, and 95% confidence intervals are calculated using Prism Version 3.0 (Graph Pad Software).

Weight loss screen = assay type: in vivo, Balb/C mice; details: 60 mg/kg intraperitoneally
Description: Balb/C mice (Jackson Labs) are utilized for the initial weight loss screening. Animals are housed in temperature and 12 hour day/night cycle rooms and fed mouse chow and water ad lib. Three mice are utilized for each compound tested with vehicle controls in triplicate per experiment. For the experiments, mice are housed separately for each compound tested three mice to a cage. Compounds are diluted in DMSO at 10 mg/ml and mice are injected intraperitoneally with 60 mg/kg in approximately 100 μl of DMSO or with vehicle alone. Mice are observed and weighed daily; average weights and standard errors are computed with Excel (Microsoft). The experiment continues until treated animals reach their pretreatment weights. Select compounds are tested in animals housed in metabolic cages. Dosing of animals are identical to the screening experiments with three animals to a single metabolic cage. Animal weights, water and food consumption, and urine and feces production are measured daily.

Compound | IC50 [1] [µg/mL] | FAS (IC50) (purified human FAS) | IC50 (purified human FAS) [µM] | Weight Loss (Weight loss screen; day 1) | Weight Loss (Weight loss screen; day 2)
COC(=O)c1sc(C(=O)O)cc1O | > 80 | Neg | – | – | –
CCCCCCCCNC(=O)c1cc(O)c(C(=O)OC)s1 | 38.8 (≈ 124 µM) | Neg | – | – | –
COC(=O)c1sc(C(=O)NNc2ccc(Cl)cc2)cc1O | 18.1 ± 4.4 (≈ 55.4 µM) | – | 230 | 60 mg/kg: +1.2% (day 1) | –
CCCCCCCCNC(=O)c1cc(O)cs1 | 8.5 ± 2.1 (≈ 33.3 µM) | Neg | – | – | 60 mg/kg: 1.6% (day 2)

Further lines, with some results ahead:

IC50 [1] [µg/mL] | FAS (IC50) (purified human FAS) | IC50 (purified human FAS) [µM] | Compound | Weight Loss (Weight loss screen; day 1) | Weight Loss (Weight loss screen; day 2)
> 80 | Neg | – | C=CCNC(=O)c1cc(O)c(C(=O)OC)s1 | 60 mg/kg: +2.3% (day 1) | –
31.7 (≈ 96.5 µM) | Neg | – | CCCCCCCCNNC(=O)c1cc(O)c(C(=O)OC)s1 | – | –
